Results as given in PMC3038857, “Using Nuclear Receptor Activity to Stratify Hepatocarcinogens” (PLoS ONE, 2011).

How the values were obtained:
[1] = molecular target: T1, ESR1 (estrogen receptor 1) (Homo sapiens, UniProt P03372); experiment: ATG_ERE_CIS: Factorial reporter gene assay (HepG2); assay type: cell-based; settings: HepG2
T1 construct: expressed in transfected cells; host or cells: HepG2
Method: A multiple reporter transcription unit (MRTU) library consisting of 48 transcription factor binding sites was transfected into the HepG2 human liver hepatoma cell line. In addition to the cis-acting reporter genes (CIS), a modification of the approach was used to generate a trans-system (TRANS) with a mammalian one-hybrid assay consisting of an additional 25 MRTU library reporting the activity of nuclear receptor super-family members. […] These assays were performed by Attagene Inc. (Morrisville NC) under contract to EPA.
In addition to the cis-acting reporter genes (CIS), a modification of the approach was used to generate a trans-system (TRANS) with a mammalian one-hybrid assay consisting of an additional 25 MRTU library reporting the activity of nuclear receptor super-family members. […] Chemicals were then tested in the CIS and TRANS assays at seven concentrations starting at the MTC and followed by three-fold serial dilutions. These assays were performed by Attagene Inc. (Morrisville NC) under contract to EPA. Detailed description of the methods, data and analysis methods for this dataset will be presented in a separate publication.

Rat Liver [2] = settings: rat, chronic study, ref ToxRefDB; cited from earlier work
CYP2B6 = experiment: CLZD_CYP2B6: Change in expression of CYP2B6 (primary human hepatocytes); assay type: cell-based; settings: 24 hr
Procedure, shortened: (§1)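 Read-out: mRNA change by multiplexed quantitative nuclease protection assay. Primary human hepatocytes; 5 concentrations, 0.004-40 µM; exposures 6, 24, 48 hr.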

Mouse Liver [3] = settings: mouse, chronic study, ref ToxRefDB; cited from earlier work
Rat Liver [4] = settings: rat, chronic study, ref ToxRefDB; cited from earlier work; remark: listed apart in the source
CYP3A4 = experiment: CLZD_CYP3A4: Change in expression of CYP3A4 (primary human hepatocytes); assay type: cell-based; settings: 24 hr
Procedure, shortened: as §1

Rat Liver [5] = settings: rat, chronic study, ref ToxRefDB; cited from earlier work; remark: listed apart in the source
PXR (NR1I2) [6] = molecular target: T2, PXR (NR1I2) (Homo sapiens, UniProt O75469); experiment: ATG_PXRE_CIS: Factorial reporter gene assay (HepG2); assay type: cell-based; set-up: endogenous in cells; host or cells: HepG2; settings: HepG2
T2 sequence (O75469 1-434): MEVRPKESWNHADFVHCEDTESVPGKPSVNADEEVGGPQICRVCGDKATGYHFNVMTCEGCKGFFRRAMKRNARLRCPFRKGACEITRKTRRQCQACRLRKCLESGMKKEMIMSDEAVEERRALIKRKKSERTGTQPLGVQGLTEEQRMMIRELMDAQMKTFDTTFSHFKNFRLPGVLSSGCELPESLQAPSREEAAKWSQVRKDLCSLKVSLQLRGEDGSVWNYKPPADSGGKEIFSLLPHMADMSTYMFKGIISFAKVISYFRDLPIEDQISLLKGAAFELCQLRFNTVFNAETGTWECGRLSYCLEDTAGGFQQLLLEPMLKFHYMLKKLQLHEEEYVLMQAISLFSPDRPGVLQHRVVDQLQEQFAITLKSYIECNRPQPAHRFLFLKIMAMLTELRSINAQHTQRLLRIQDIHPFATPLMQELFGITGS
Procedure, shortened: (§2)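 Mammalian one-hybrid trans reporters (25 MRTUs) measured ERRg, FXR and PPARg; PXRE used cis reporters from a 48-site MRTU library. Both were run in HepG2. Dosing: seven concentrations, MTC as the highest, three-fold dilution series.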

PXR (NR1I2) [7] = molecular target: T2, PXR (NR1I2); experiment: NVS_NR_hPXR: Human PXR Fluormone PXR (SXR) green (cell-free HTS); assay type: binding
Procedure, shortened: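 Responses were normalized to same-plate solvent controls as percent of neutral control. AC50 values came from Hill-equation fits of concentration-response curves.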

[8] = molecular target: T3, PPARG (peroxisome proliferator-activated receptor gamma) (Homo sapiens, UniProt P37231); experiment: ATG_PPARg_TRANS: Factorial reporter gene assay (HepG2); assay type: cell-based; settings: HepG2
T3 construct: expressed in transfected cells; host or cells: HepG2
T3 sequence (P37231 1-505): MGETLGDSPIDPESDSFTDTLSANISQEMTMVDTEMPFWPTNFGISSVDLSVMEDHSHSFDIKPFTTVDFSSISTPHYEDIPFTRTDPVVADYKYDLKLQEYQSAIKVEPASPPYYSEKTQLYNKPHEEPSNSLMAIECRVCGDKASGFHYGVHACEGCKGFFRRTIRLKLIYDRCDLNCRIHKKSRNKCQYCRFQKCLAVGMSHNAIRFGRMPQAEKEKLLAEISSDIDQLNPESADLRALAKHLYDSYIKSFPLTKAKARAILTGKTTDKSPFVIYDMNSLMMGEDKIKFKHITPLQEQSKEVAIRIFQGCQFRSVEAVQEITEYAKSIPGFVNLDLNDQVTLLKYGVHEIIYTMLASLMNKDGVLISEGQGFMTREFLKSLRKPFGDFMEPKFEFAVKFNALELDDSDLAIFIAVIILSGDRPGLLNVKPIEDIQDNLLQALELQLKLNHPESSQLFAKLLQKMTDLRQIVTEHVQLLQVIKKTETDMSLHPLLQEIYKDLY
Procedure, shortened: as §2

Mouse Liver [9] = settings: mouse, chronic study, ref ToxRefDB; cited from earlier work; remark: listed apart in the source
PXR (NR1I2) [10] = molecular target: T2, PXR (NR1I2); experiment: ATG_PXR_TRANS: Factorial reporter gene assay (HepG2); assay type: cell-based; set-up: endogenous in cells; host or cells: HepG2; settings: HepG2
Procedure, shortened: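 HepG2 cells transfected with multiplexed reporter libraries: cis-acting binding-site reporters (CIS) and a one-hybrid nuclear-receptor trans system (TRANS). Chemicals tested at seven concentrations, starting at the maximum tolerated concentration with three-fold serial dilutions.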

Mouse Liver [11] = settings: mouse, chronic study, ref ToxRefDB; cited from earlier work; remark: listed apart in the source
AR (androgen receptor) = experiment: NVS_NR_hAR: Human AR 3H-Methyltrienolone (cell-free HTS); assay type: binding
From the text: These are a collection of biochemical assays measuring binding constants and enzyme inhibition values. Chemicals were initially screened at a single concentration in duplicate wells at a concentration of 10 [drawing 63] M for cytochrome P-450 assays and 25 [drawing 64] M for all others. […] These assays were run by Caliper Life Sciences (Hanover, MD) under contract to EPA. Short assay descriptions are available at: http://www.caliperls.com/products/contract-research/in-vitro/.
Cell-free HTS Assays: A collection of biochemical assays measuring binding constants and enzyme inhibition values. […] These assays were run by Caliper Life Sciences (Hanover, MD) under contract to EPA. Short assay descriptions are available at http://www.caliperls.com/products/contract-research/in-vitro/. Values for all endpoints were imported into GeneData Screener (Basel, Switzerland) and normalised to solvent controls from the same plate as the tested compounds and expressed as percent of neutral control. Concentration-response curves were fit in GeneData Screener (Basel, Switzerland) Condeseo module using the Hill equation and AC50 values were determined. […] Detailed description of the methods, data and analysis methods for this dataset are described in a separate publication.

T1 sequence (P03372 whole entry): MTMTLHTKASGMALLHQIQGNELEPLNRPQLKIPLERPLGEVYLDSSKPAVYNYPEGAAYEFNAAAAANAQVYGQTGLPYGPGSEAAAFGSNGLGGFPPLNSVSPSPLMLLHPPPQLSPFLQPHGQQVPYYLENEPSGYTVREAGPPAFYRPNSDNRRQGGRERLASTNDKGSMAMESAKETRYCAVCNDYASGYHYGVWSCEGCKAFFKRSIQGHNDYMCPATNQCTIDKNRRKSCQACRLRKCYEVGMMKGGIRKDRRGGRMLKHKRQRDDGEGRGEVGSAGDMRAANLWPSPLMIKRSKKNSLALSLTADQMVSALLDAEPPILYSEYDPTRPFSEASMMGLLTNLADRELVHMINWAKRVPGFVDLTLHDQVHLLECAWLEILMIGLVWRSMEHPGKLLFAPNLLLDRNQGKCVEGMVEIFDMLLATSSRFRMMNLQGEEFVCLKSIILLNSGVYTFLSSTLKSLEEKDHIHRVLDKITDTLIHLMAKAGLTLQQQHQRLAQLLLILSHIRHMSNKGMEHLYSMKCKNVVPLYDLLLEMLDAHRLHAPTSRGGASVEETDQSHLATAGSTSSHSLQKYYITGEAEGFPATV

In the case of Cc1cc(C)nc(NC(=O)NS(=O)(=O)c2ccccc2C(=O)OC2COC2)n1 [r232], the ATG_ERE_CIS [1] is given as 4.319, the CHR_Rat_Liver_3_NeoplasticLesion (Rat Liver [2]) is given as 0 and the CLZD_CYP2B6_24 (CYP2B6) is given as 4.534. The CHR_Mouse_Liver_1_AnyLesion (Mouse Liver [3]) was 6, the CHR_Rat_Liver_2_PreneoplasticLesion (Rat Liver [4]) was 6 and the CLZD_CYP3A4_24 (CYP3A4) was 4.535. The CHR_Rat_Liver_1_AnyLesion (Rat Liver [5]) was 6 and the ATG_PXRE_CIS (PXR (NR1I2) [6]) was 4.337.

For CCCN(CCOc1c(Cl)cc(Cl)cc1Cl)C(=O)n1ccnc1 [r251], the NVS_NR_hPXR (PXR (NR1I2) [7]) is listed as 5.274, the CHR_Rat_Liver_3_NeoplasticLesion (Rat Liver [2]) is listed as 0 and the ATG_PPARg_TRANS [8] is listed as 5.456. For the same molecule, the CHR_Mouse_Liver_3_NeoplasticLesion (Mouse Liver [9]) was 6, the CHR_Mouse_Liver_1_AnyLesion (Mouse Liver [3]) was 6 and the CHR_Rat_Liver_2_PreneoplasticLesion (Rat Liver [4]) was 0. For the same molecule, the ATG_PXR_TRANS (PXR (NR1I2) [10]) was 5.444, the CHR_Mouse_Liver_2_PreneoplasticLesion (Mouse Liver [11]) was 6 and the CHR_Rat_Liver_1_AnyLesion (Rat Liver [5]) was 6. It also gave an ATG_PXRE_CIS (PXR (NR1I2) [6]) of 5.538 and an NVS_NR_hAR (AR (androgen receptor)) of 4.903.
